Data reported in PubChem BioAssay (NCI).
Values joined by “and” are separate entries in the source; they are usually repeats but may differ in a detail not shown here. Equal entries are not always repeated.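 Where inhibition never reached the appropriate level, the endpoint shown equals the highest concentration tested. Otherwise, values were interpolated linearly from a five-concentration, 48-hour dose response in 96-well plates. Abbreviation: GI50, concentration required for 50% inhibition of growth. TGI: total growth inhibition.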 *1 amine or outer side, *2 acyl side, *3 side chain or, on linkers, in order; H or OH if unused. Where a SMILES comes first, the peptide text is derived from it. Bridges are numbered along the chain shown (N, C = ends). [ ]: non-standard residue; d: D form. The star is where a group is joined. Phe(3-Me) = Cc1cccc(C[C@H](N)C(=O)O)c1; NH(4-Cl-2-F-phenyl) = Fc1cc(Cl)ccc1N*; Pro(4R-Me) = C[C@H]1CN[C@H](C(=O)O)C1; Propanoyl(3-NMe2) = CN(C)CCC(=O)*; Hyp = O=C(O)[C@@H]1C[C@@H](O)CN1; aThr = C[C@H](O)[C@H](N)C(=O)O; Pip = O=C(O)[C@@H]1CCCCN1; CO = O=C([*:1])[*:2]

Key:
Experiment in all cases: inhibition of tumour cell growth, NCI panel, 48 h
[1] = tested on: 786-0 renal
[2] = tested on: A549 NSCLC
[3] = tested on: EKVX NSCLC
[4] = tested on: HCC-2998 colon
[5] = tested on: HT29 colon
[6] = tested on: MCF7 breast
[7] = tested on: NCI-H460 lung
[8] = tested on: NCI-H522 lung
[9] = tested on: OVCAR-8 ovarian
[10] = tested on: SR leukemia

Row | SMILES | GI50 [1] | TGI [1] | GI50 [2] | TGI [2] | GI50 [3] | TGI [3] | GI50 [4] | TGI [4] | GI50 [5] | TGI [5] | GI50 [6] | TGI [6] | GI50 [7] | TGI [7] | GI50 [8] | TGI [8] | GI50 [9] | TGI [9] | GI50 [10] | TGI [10]
1 | C[C@@]1(N2C(=O)OC[C@@H]2c2ccccc2)C(=O)N([C@H](CC(=O)N2CCC(N3CCCCC3)CC2)C(=O)NCc2cccc(C(F)(F)F)c2)[C@@H]1/C=C/c1ccccc1 | 1.81 µM | 3.41 µM | 2.06 µM | 4.23 µM | 1.56 µM | 3.69 µM | 1.98 µM | 3.79 µM | 2.31 µM | 5.7 µM | 1.85 µM | 4.24 µM | 2 µM | 3.86 µM | 1.86 µM | 3.85 µM | 2.77 µM | 7.24 µM | 1.94 µM | 4.7 µM
2 | Cc1ccccc1/C=C1\CN(C(=O)OC(C)(C)C)C/C(=C\c2ccccc2C)C1=O | 1.84 µM | 3.52 µM | 2.82 µM | 9.17 µM | 2.34 µM | 6.88 µM | 1.94 µM | 3.78 µM | 2.86 µM | 7.61 µM | 2.21 µM | > 100 µM | 2.12 µM | 4.27 µM | 2.2 µM | 6.63 µM | 3.49 µM | > 100 µM | 1.89 µM | > 100 µM
3 | COc1ccc(-c2nocc2-c2cc(OC)c(OC)c(OC)c2)cc1 | 0.109 µM | 31.6 µM | 0.0907 µM | > 100 µM | 0.121 µM | > 100 µM | 0.358 µM | 28 µM | 0.0379 µM | 4.76 µM | 0.0387 µM | > 100 µM | 0.048 µM | 15.5 µM | 0.0323 µM | 0.499 µM | 0.228 µM | > 100 µM | 0.0497 µM | > 76.3 µM
4 | CC(C)[C@@H]1CC[C@@H]2[C@@H]1[C@H](OC(=O)/C=C/c1ccccc1)[C@]1(C(C)C)C[C@@H](OC(=O)CO)[C@@]2(C)O1 | 4.55 µM | 9.23 µM | 6.61 µM | 14.4 µM | 4.34 µM | 8.8 µM | 6.35 µM | 11.7 µM | 6.92 µM | 14.4 µM | 4.88 µM | 10.5 µM | 6.15 µM | 11.7 µM | 6.19 µM | 13.2 µM | 0.0259 µM | 9.86 µM | 7.91 µM | 18.7 µM
5 | C=C1N(C)c2ccc(Cl)cc2C1(C)C | 16.9 µM | 96.1 µM | 17.4 µM | > 100 µM | 4.59 µM | > 100 µM | 6.25 µM | > 100 µM | 3.24 µM | 18.6 µM | 6.65 µM | 58.7 µM | 4.94 µM | 36.1 µM | 5.91 µM | 74.8 µM | 9.67 µM | > 100 µM | 2.74 µM | 8.94 µM
6 | S=C(N/N=C(/c1ccccc1)c1ccccn1)Nc1cccc(Cl)c1 | 0.675 µM | 2.51 µM and 5.56 µM | 1.82 µM | 5.56 µM and 7.58 µM | 0.433 µM | 1.88 µM and 4.7 µM | 2 µM | 5.04 µM and 5.92 µM | 0.662 µM and 0.0738 µM | 11.9 µM | 0.00544 µM | 0.918 µM and 6.01 µM | 0.612 µM | 4.69 µM | 1.12 µM | 2.4 µM | 0.0258 µM | 2.87 µM | 0.00413 µM | 
7 | COc1ccc(/C=C/C(=O)c2ccc(Nc3ccnc4cc(Cl)ccc34)cc2)cc1 | > 100 µM | > 100 µM | > 100 µM | > 100 µM | > 100 µM | > 100 µM | > 100 µM | > 100 µM | 4.2 µM | > 100 µM | 2.85 µM | > 42.3 µM | > 100 µM | > 100 µM | > 100 µM | > 100 µM | > 100 µM | > 100 µM | 2.24 µM | 10.1 µM
8 | COc1ccc(-c2coc3cc(OC)cc(O)c3c2=O)cc1 |  | > 100 µM |  | > 100 µM |  | > 100 µM |  | > 100 µM |  | > 100 µM |  | > 100 µM |  | > 100 µM |  | > 100 µM |  | > 100 µM |  | > 100 µM
9 | O=c1cccc(C#CC#C/C=C/CO)o1 | 3.72 µM | > 27.5 µM | 3.65 µM | 13.1 µM | 2.77 µM | 6.47 µM | 2.09 µM | 3.52 µM | 3.89 µM | > 100 µM | 2.23 µM |  | 2.88 µM |  | 1.45 µM |  | 2.37 µM | 6.62 µM | > 100 µM | > 100 µM
10 | C[C@]12CC[C@H]3[C@@H](C[C@@H]4N=C(c5ccc(O)cc5)S[C@@]45C[C@H](O)CC[C@]35C)[C@@H]1CC[C@@H]2O | 0.423 µM | 2.39 µM | 5.95 µM | > 100 µM | 7.29 µM | > 100 µM | 31.9 µM | > 100 µM | 3.13 µM | 20.4 µM | 3.34 µM | 21.5 µM | 4.94 µM | > 100 µM | 22.6 µM | > 100 µM | 40.9 µM | > 100 µM | 1.37 µM | 33.8 µM
11 | O=C(Nc1ccc(Br)cc1F)c1cc(Br)ccc1O | 1.66 µM | 6.26 µM | 2.11 µM | 16.4 µM | 1.03 µM | 11.7 µM | 2.87 µM | 10.8 µM | 3.08 µM | 9.71 µM | 0.906 µM | 8.96 µM | 0.5 µM | 7.2 µM | 0.344 µM | 5.38 µM | 0.959 µM | 15.4 µM | 2.07 µM | 11.8 µM
12 | O=C(/C=C/c1cccnc1)c1ccccc1O | 17.2 µM | 31.8 µM | 37.1 µM | > 100 µM | 34.7 µM | > 100 µM | 16.2 µM | 30 µM | 21.4 µM | 58.7 µM | 32.3 µM | > 100 µM | 30.8 µM | > 100 µM | 16.6 µM | 48.7 µM | 31.5 µM | > 100 µM | 12.3 µM | 64.6 µM
13 | Cc1ccc(S(=O)(=O)n2cc(-c3nnnn3-c3ccc(Cl)cc3)c(=O)c3ccccc32)cc1 | > 100 µM | > 100 µM | 76.3 µM | > 100 µM | > 100 µM | > 100 µM | > 100 µM | > 100 µM | 57.7 µM | > 100 µM | 80.6 µM | > 100 µM | 81.9 µM | > 100 µM | 41.3 µM | > 100 µM | > 100 µM | > 100 µM | 40.9 µM | > 100 µM
14 | CC(=O)Nc1sc2c(c1-c1nc3ccccc3s1)CNC2 | 2.61 µM | 9.6 µM | 2.26 µM | 25 µM | 2.59 µM | 21.9 µM | 2.58 µM | 9.92 µM | 3.76 µM | 19.4 µM | 0.865 µM | 7.88 µM | 1.94 µM | 10.2 µM | 2.62 µM | 10.8 µM | 2.45 µM | > 50 µM | 1.68 µM | 12.6 µM
15 | COc1cc(OC)cc(-c2cncn2-c2ccc(-c3nc4cc(OC)c(OC)c(OC)c4s3)cc2)c1 | 10.3 µM | > 100 µM | 5.59 µM | > 100 µM | 1.87 µM | > 100 µM | > 100 µM | > 100 µM | 8.33 µM | > 100 µM | 4.02 µM | > 100 µM | 7.46 µM | > 100 µM | 11.8 µM | > 100 µM | 13.4 µM | > 100 µM | 7.14 µM | > 100 µM
16 | Cc1cccc(C[C@H](NC(=O)Nc2ccc(Cl)cc2F)C(=O)N[C@@H]2C(=O)N3C[C@H](OC(=O)CCN(C)C)C[C@H]3C(=O)N3CCCC[C@H]3C(=O)N[C@@H](C)C(=O)N3C[C@H](C)C[C@H]3C(=O)O[C@H]2C)c1 ({NH(4-Cl-2-F-phenyl)-CO}-[Phe(3-Me)][aThr][Hyp](Propanoyl(3-NMe2))[Pip]A[Pro(4R-Me)]; ester 2-C) | 1.39 µM | 5.66 µM | 0.526 µM | 11.2 µM | 0.976 µM | 6.25 µM | 0.476 µM | 1.77 µM | 0.526 µM | 2.82 µM | 0.394 µM | 1.83 µM | 0.386 µM | 1.82 µM | 0.495 µM | 2.47 µM | 0.431 µM | 12.9 µM | 0.624 µM | 3.94 µM
17 | O=C(CN1CCN(c2ccc(Cl)cc2)CC1)N1CCN(c2nnc(-c3ccccc3)c(-c3ccccc3)n2)CC1 | 5.64 µM | > 100 µM | 28.6 µM | > 100 µM | 7.57 µM | > 100 µM | 9.29 µM | > 100 µM | 2.43 µM | 19.5 µM | 3.38 µM | > 100 µM | 4.97 µM | > 100 µM | 16.2 µM | > 100 µM | 52.4 µM | > 100 µM | 2.73 µM | 15.7 µM
18 | COc1cc(NC(N)=NCCC(C)(C)c2ccc(C(F)(F)F)cc2)ncc1C#N | 1.71 µM | 3.14 µM | 1.61 µM | 3.06 µM | 1.4 µM | 2.87 µM | 1.89 µM | 3.34 µM | 1.62 µM | 3.14 µM | 1.45 µM | 2.98 µM | 1.83 µM | 3.55 µM | 1.44 µM | 2.97 µM | 1.7 µM | 3.18 µM | 1.7 µM | 4.06 µM
